The test deals with Anti-Fas-induced Jurkat cells. Briefly: Anti-Fas-induced apoptosis of Jurkat cells in vitro (Caspase 3 substrate Ac-DEVD-AMC fluorescence). To be noted: Homo sapiens; Jurkat Clone E6-1, Anti-Fas 50 ng/mL, 24 hours, Ac-DEVD-AMC 10 μM. The format is cell-based.
`CC(C)(C)c1ccccc1NC(=O)C(=O)N1CCCC[C@H](C(=O)N[C@@H](CC(=O)O)C(=O)COc2c(F)c(F)cc(F)c2F)C1` (single isomer, unassigned) [Example 9] yielded an EC50 of 0.0655 µM. As for `CC(C)(C)c1ccccc1NC(=O)C(=O)N1CCCC[C@@H](C(=O)N[C@@H](CC(=O)O)C(=O)COc2c(F)c(F)cc(F)c2F)C1` (single isomer, unassigned) [Example 10], the EC50 was found to be 0.0416 µM. `CC(C)(C)c1ccccc1NC(=O)C(=O)N[C@H]1CC[C@H](C(=O)N[C@@H](CC(=O)O)C(=O)COc2c(F)c(F)cc(F)c2F)CC1` [Example 6] showed an EC50 of 0.552 µM. Molecule `CC(C)(C)c1ccccc1NC(=O)C(=O)N1CCOC(C(=O)N[C@@H](CC(=O)O)C(=O)COc2c(F)c(F)cc(F)c2F)C1` (some centres unmarked) [Example 8] showed an EC50 of 0.124 µM. Molecule `CC(C)(C)c1ccccc1NC(=O)C(=O)N1CC=CC[C@H](C(=O)N[C@@H](CC(=O)O)C(=O)COc2c(F)c(F)cc(F)c2F)C1` [Example 11] gave an EC50 of 0.0272 µM. Against the preceding molecule, the EC50 is about 4.6-fold lower. Then `CC(C)(C)c1ccccc1NC(=O)C(=O)N1CC=CC[C@@H](C(=O)N[C@@H](CC(=O)O)C(=O)COc2c(F)c(F)cc(F)c2F)C1` [Example 12], with 0.0525 µM; and `O=C(O)C[C@H](NC(=O)C1CC2CCC(C1)N2C(=O)OCc1ccccc1)C(=O)COc1c(F)c(F)cc(F)c1F` (some centres unmarked) [Example 14], with 0.275 µM; and `CC(C)(C)c1ccccc1NC(=O)C(=O)N1C[C@H](C(=O)N[C@@H](CC(=O)O)C(=O)COc2c(F)c(F)cc(F)c2F)Cc2ccccc21` [Example 16], with 0.417 µM. On to `CC(C)(C)c1ccccc1NC(=O)C(=O)N1C[C@@H](C(=O)N[C@@H](CC(=O)O)C(=O)COc2c(F)c(F)cc(F)c2F)Cc2ccccc21` [Example 17], for which the EC50 amounted to 0.289 µM. Then `CC(C)(C)c1ccccc1NC(=O)C(=O)N1CC[C@H](C(=O)N[C@@H](CC(=O)O)C(=O)COc2c(F)c(F)cc(F)c2F)C2CCCCC21` (some centres unmarked) [Example 18], with 0.557 µM; and `CC(C)(C)c1ccccc1NC(=O)C(=O)N1CC[C@@H](C(=O)N[C@@H](CC(=O)O)C(=O)COc2c(F)c(F)cc(F)c2F)C2CCCCC21` (some centres unmarked) [Example 19], with 0.224 µM; and `CC1(C(=O)N[C@@H](CC(=O)O)C(=O)COc2c(F)c(F)cc(F)c2F)CCN(C(=O)C(=O)Nc2ccccc2C(C)(C)C)CC1` [Example 20], with 0.698 µM. The molecule `CC(C)(C)c1ccccc1NC(=O)C(=O)N1CCC(F)(C(=O)N[C@@H](CC(=O)O)C(=O)COc2c(F)c(F)cc(F)c2F)CC1` [Example 21] registered an EC50 of 0.0979 µM. Then `O=C(O)C[C@H](NC(=O)C1CCN(C(=O)OCc2ccccc2)C1)C(=O)COc1c(F)c(F)cc(F)c1F` (some centres unmarked) [Example 22], with 0.0342 µM. Then `O=C(O)C[C@H](NC(=O)c1ccc(NC(=O)OCc2ccccc2)cc1)C(=O)COc1c(F)c(F)cc(F)c1F` [Example 23], with 0.215 µM. Then `O=C(O)C[C@H](NC(=O)C1CN(C(=O)OCc2ccccc2)CCO1)C(=O)COc1c(F)c(F)cc(F)c1F` (some centres unmarked) [Example 24], with 0.0497 µM; and `O=C(O)C[C@H](NC(=O)[C@H]1CC[C@H](NC(=O)OCc2ccccc2)CC1)C(=O)COc1c(F)c(F)cc(F)c1F` [Example 25], with 0.0707 µM.

`O=C(O)C[C@H](NC(=O)[C@@H]1CCCN(C(=O)C2CCCC2)C1)C(=O)COc1c(F)c(F)cc(F)c1F` [Example 26] gave a concentration giving a half-maximal response (EC50) of 0.0126 µM. `O=C(O)C[C@H](NC(=O)[C@@H]1CCCN(C(=O)C(=O)NC2CCCC2)C1)C(=O)COc1c(F)c(F)cc(F)c1F` [Example 27] yielded an EC50 of 0.0211 µM.

For `O=C(O)C[C@H](NC(=O)[C@@H]1CCCN(C(=O)OC2CCCC2)C1)C(=O)COc1c(F)c(F)cc(F)c1F` [Example 28], the EC50 came to 0.0221 µM.

Consider `O=C(O)C[C@H](NC(=O)[C@@H]1CCCN(C(=O)NC2CCCC2)C1)C(=O)COc1c(F)c(F)cc(F)c1F` [Example 29], for which the EC50 came to 0.0574 µM.

`CC(C)OC(=O)N1CCC[C@@H](C(=O)N[C@@H](CC(=O)O)C(=O)COc2c(F)c(F)cc(F)c2F)C1` [Example 30]: the EC50 worked out at 0.0145 µM.

For the molecule `O=C(O)C[C@H](NC(=O)[C@@H]1CCCN(C(=O)Oc2ccccc2)C1)C(=O)COc1c(F)c(F)cc(F)c1F` [Example 31], it took 0.0214 µM to reach a half-maximal effect (EC50).

`O=C(O)C[C@H](NC(=O)C1CCN(C(=O)c2nccc3ccccc23)CC1)C(=O)COc1c(F)c(F)cc(F)c1F` [Example 34] came in with an EC50 of 0.043 µM. Then `O=C(O)C[C@H](NC(=O)C1CCN(C(=O)c2ccccn2)CC1)C(=O)COc1c(F)c(F)cc(F)c1F` [Example 35], with 0.0254 µM. Molecule `O=C(O)C[C@H](NC(=O)C1CCN(C(=O)c2cccnc2)CC1)C(=O)COc1c(F)c(F)cc(F)c1F` [Example 36] displayed a half-maximal effective concentration (EC50) of 0.0103 µM. `O=C(O)C[C@H](NC(=O)C1CCN(C(=O)c2ccncc2)CC1)C(=O)COc1c(F)c(F)cc(F)c1F` [Example 37] gave an EC50 of 0.0239 µM. Turning to `O=C(O)C[C@H](NC(=O)C1CCN(C(=O)c2ncccn2)CC1)C(=O)COc1c(F)c(F)cc(F)c1F` [Example 38], the EC50 turned out to be 0.022 µM. In the case of `Cc1c(F)cc(F)c(F)c1OCC(=O)[C@H](CC(=O)O)NC(=O)C1CCN(C(=O)c2noc3ccccc23)CC1` [Example 41], the EC50 stood at 0.0188 µM. This EC50 and that of the molecule before are within 1.5-fold of each other.

As to `O=C(O)C[C@H](NC(=O)C1CCN(C(=O)c2nc3ccccc3[nH]2)CC1)C(=O)COc1c(F)c(F)cc(F)c1F` [Example 42], the midpoint of the response, the EC50, lay at 0.0252 µM.

In turn, `Cn1c(C(=O)N2CCC(C(=O)N[C@@H](CC(=O)O)C(=O)COc3c(F)c(F)cc(F)c3F)CC2)nc2ccccc21` [Example 43] yielded an EC50 of 0.0386 µM. Then `Cn1c(C(=O)N2CCC(C(=O)N[C@@H](CC(=O)OC(C)(C)C)C(=O)COc3c(F)c(F)cc(F)c3F)CC2)cc2ccccc21` [Example 44], with 0.0397 µM; and `O=C(O)C[C@H](NC(=O)C1CCN(C(=O)c2nsc3ccccc23)CC1)C(=O)COc1c(F)c(F)cc(F)c1F` [Example 51], with 0.0272 µM.

Turning to `CC1(C(=O)N2CCC(C(=O)N[C@@H](CC(=O)O)C(=O)COc3c(F)c(F)cc(F)c3F)CC2)CCCC1` [Example 52], the response was half-maximal at 0.021 µM (EC50). The EC50 values of the last two molecules are within 1.5-fold of each other.

With `CC(C)(C)c1ccccc1C(=O)N1CCC(C(=O)N[C@@H](CC(=O)O)C(=O)COc2c(F)c(F)cc(F)c2F)CC1` [Example 53], the EC50 was 0.0675 µM. This EC50 lies about 3.2-fold higher than the previous one.

As to `O=C(O)C[C@H](NC(=O)C1CCN(C(=O)c2nc3ccccc3s2)CC1)C(=O)COc1c(F)c(F)cc(F)c1F` [Example 58], a half-maximal response (EC50) required 0.0166 µM. `CC(C)(C)c1cc(Cl)ccc1NC(=O)C(=O)N1CCC(C(=O)N[C@@H](CC(=O)O)C(=O)COc2c(F)c(F)cc(F)c2F)CC1` [Example 59] came in with an EC50 of 0.157 µM.

`O=C(O)C[C@H](NC(=O)C1CCN(C(=O)C(=O)Nc2ccc(Cl)cc2C(F)(F)F)CC1)C(=O)COc1c(F)c(F)cc(F)c1F` [Example 60] displayed an EC50 of 0.0496 µM.

Take `O=C(O)C[C@H](NC(=O)C1CCN(C(=O)C(=O)NC2CCCC2)CC1)C(=O)COc1c(F)c(F)cc(F)c1F` [Example 61]: the EC50 was 0.0504 µM. This EC50 and that of the molecule before are within 1.5-fold of each other. `O=C(O)C[C@H](NC(=O)C1CCN(C(=O)C(=O)NCCC2CCCC2)CC1)C(=O)COc1c(F)c(F)cc(F)c1F` [Example 62] had an EC50 of 0.0424 µM. With `O=C(O)C[C@H](NC(=O)C1CCN(C(=O)C(=O)NCC2CCCC2)CC1)C(=O)COc1c(F)c(F)cc(F)c1F` [Example 63], the EC50 worked out at 0.038 µM.

A word on the EC50: it is the midpoint of the concentration-response curve. High values mean lower potency in that assay, low ones higher potency in that assay.

Values taken from patent publication US10981860B2, “Caspase inhibitor and pharmaceutical composition, use and therapeutic method thereof” (Chia Tai Tianqing Pharmaceutical Group Co., Ltd., priority 2016, dated 2021).
